From US9758492B2, “IDO inhibitors” (Bristol-Myers Squibb Company, priority 2013, dated 2017)

Legend:
IDO = IDO (Homo sapiens, UniProt P14902); experiment: LLE_IDO_ABS_DR (IDO assay)
Human IDO1 = target: T1, Human IDO1 (Homo sapiens, UniProt P14902); experiment: IDO Kynurenine Assay with Human IDO1/HEK293 Cells; assay type: cell-based; settings: read-out: HEK human IDO-1 (IC50)
T1 construct: expressed in transfected cells; host or cells: HEK293
Outline: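 HEK293 cells stably expressing human IDO1, in phenol red-free RPMI/10% FBS, exposed to compound for 20 h at 37 °C. Stopped with 0.2% TCA (50 °C, 30 min); kynurenine in supernatant detected with Ehrlich reagent, absorbance 490 nm.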

T1 sequence (P14902 whole entry): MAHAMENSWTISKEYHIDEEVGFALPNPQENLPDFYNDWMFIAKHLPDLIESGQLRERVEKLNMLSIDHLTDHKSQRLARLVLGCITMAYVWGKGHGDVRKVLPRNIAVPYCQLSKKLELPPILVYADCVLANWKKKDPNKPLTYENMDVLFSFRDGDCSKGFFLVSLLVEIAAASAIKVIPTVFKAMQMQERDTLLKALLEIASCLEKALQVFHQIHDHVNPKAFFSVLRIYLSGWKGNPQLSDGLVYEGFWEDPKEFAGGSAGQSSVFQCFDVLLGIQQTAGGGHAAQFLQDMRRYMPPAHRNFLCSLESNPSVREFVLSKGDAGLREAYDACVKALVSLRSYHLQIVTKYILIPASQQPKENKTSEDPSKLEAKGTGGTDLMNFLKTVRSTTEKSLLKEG
IDO, sequence (P14902 whole entry): as above

IC50 (IDO) [nM]	IC50 (Human IDO1) [nM]	SMILES
80	110	O=C(Nc1ccc(F)cc1F)Nc1cc(-c2ccccc2-c2nnn[nH]2)ccc1N(CCc1ccccc1)CCC(F)(F)F [Example 332, 1-(2,4-difluorophenyl)-3-(4-(phenethyl(3,3,3-trifluoropropyl)amino)-2′-(1H-tetrazol-5-yl)-[1,1′-biphenyl]-3-yl) urea]
10	9.13	C=C(C)CN(CC(F)(F)F)c1ccc(-c2ccccc2-c2nnn[nH]2)cc1NC(=O)Nc1ccc(C)cc1 [Example 472]
30	50	CC(C)CN(Cc1ccccc1)c1ccc(-c2ccccc2-c2nnn[nH]2)cc1NC(=O)Nc1ccc(OC(F)(F)F)cc1 [Example 290, 1-(4-(Benzyl(isobutyl)amino)-2′-(1H-tetrazol-5-yl)-[1,1′-biphenyl]-3-yl)-3-(4-(trifluoromethoxy)phenyl)urea]
90	220	O=C(Nc1ccc(C2CC2)c(F)c1)Nc1cc(-c2ccccc2-c2nnn[nH]2)ccc1N(CCC(F)(F)F)Cc1ccc(F)cc1C(F)(F)F [Example 352, 1-(4-cyclopropyl-3-fluorophenyl)-3-(4-((4-fluoro-2-(trifluoro-methyl)benzyl) (3,3,3-trifluoropropyl)amino)-2′-(1H-tetrazol-5-yl)-[1,1′-biphenyl]-3-yl)urea]
30	60	Cc1ccc(NC(=O)Nc2cc(-c3ccccc3-c3nnn[nH]3)ccc2N(CCC(F)(F)F)Cc2cccc(Cl)c2)cc1 [Example 13, 1-(4-((3-Chlorobenzyl)(3,3,3-trifluoropropyl)amino)-2′-(1H-tetrazol-5-yl)-[1,1′-biphenyl]-3-yl)-3-(p-tolyl)urea]
2.37	3.29	Cc1ccc(NC(=O)Nc2cc(-c3cc(F)ccc3-c3nnn[nH]3)c(F)cc2N(CC(C)C)C2CCCCC2)cc1 [Example 355, 1-(4-(cyclohexyl(isobutyl)amino)-5′,6-difluoro-2′-(1H-tetrazol-5-yl)-[1,1′-biphenyl]-3-yl)-3-(p-tolyl)urea]
5.01	20	Cc1ccc(NC(=O)Nc2cc(-c3ccccc3-c3nnn[nH]3)ccc2N(CCC(F)(F)F)Cc2ccc(F)cc2C(F)(F)F)cc1 [Example 502, 1-(4-((4-fluoro-2-(trifluoromethyl)benzyl)(3,3,3-trifluoropropyl)amino)-2′-(1H-tetrazol-5-yl)-[1,1′-biphenyl]-3-yl)-3-(p-tolyl)urea]
6.12	7.33	Cc1ccc(NC(=O)Nc2cc(-c3cc(F)ccc3-c3nnn[nH]3)ccc2N(CC(C)C)CC(C)C)cc1 [Example 483]
2.5	10	CC(C)CN(CC(C)C)c1ccc(-c2cc(F)ccc2-c2nnn[nH]2)cc1NC(=O)Nc1ccccc1F [Example 484]
30	70	COCCN(Cc1ccc(Cl)cc1)c1ccc(-c2cc(F)ccc2C(=O)O)cc1NC(=O)Nc1ccc(C)cc1 [Example 193, 4′-((4-chlorobenzyl)(2-methoxyethyl)amino)-5-fluoro-3′-(3-(p-tolyl)ureido)-[1,1′-biphenyl]-2-carboxylic acid]
30	50	O=C(Nc1ccc(F)cc1F)Nc1cc(-c2ccccc2-c2nnn[nH]2)ccc1N(CCC(F)(F)F)Cc1ccccn1 [Example 344, 1-(2,4-difluorophenyl)-3-(4-((pyridin-2-ylmethyl)(3,3,3-trifluoropropyl)amino)-2′-(1H-tetrazol-5-yl)-[1,1′-biphenyl]-3-yl) urea]
5.1	2.37	O=C(Nc1ccc(C2CC2)c(F)c1)Nc1cc(-c2ccccc2-c2nnn[nH]2)ccc1N(CCC(F)(F)F)Cc1ccc(OC(F)(F)F)cc1 [Example 353, 1-(2′-(1H-tetrazol-5-yl)-4-((4-(trifluoromethoxy)benzyl)(3,3,3-trifluoro-propyl)amino)-[1,1′-biphenyl]-3-yl)-3-(4-cyclopropyl-3-fluorophenyl)urea]
20	350	C=CC(c1ccccc1)c1cc(-c2ccccc2-c2nnn[nH]2)cc(NC(=O)Nc2ccc(C)cc2)c1NCC(C)C (stereo not shown) [Example 358, 1-(4-(isobutylamino)-5-(1-phenylallyl)-2′-(1H-tetrazol-5-yl)-[1,1′-biphenyl]-3-yl)-3-(p-tolyl)urea]
10	20	Cc1ccc(NC(=O)Nc2cc(-c3ccccc3-c3nnn[nH]3)ccc2N(CCC(F)(F)F)Cc2ccc(Cl)cc2)cc1 [Example 16]
10	20	CC(C)CN(c1ccc(-c2ccccc2-c2nnn[nH]2)cc1NC(=O)Nc1ccc(OC(F)(F)F)cc1)C1CCC(F)(F)CC1 [Example 514, 1-(4((4,4-Difluorocyclohexyl)(isobutyl)amino)-2′-(1H-tetrazol-5-yl)-[1,1′-biphenyl]-3-yl)-3-(4-(trifluoromethoxy)phenyl)urea]
2.73	2.13	Cc1ccc(NC(=O)Nc2cc(-c3cc(F)ccc3C(=O)O)c(F)cc2N(CC(C)C)C2CCCCC2)cc1 [Example 231]

IC50 (IDO) [nM]	IC50 (Human IDO1) [nM]	SMILES
50	70	O=C(Nc1ccc(C(F)(F)F)cc1F)Nc1cc(-c2ccccc2-c2nnn[nH]2)ccc1N1CCC(c2ccccc2)C1 (racemic) [Example 370, (±)-1-(2-Fluoro-4-(trifluoromethyl)phenyl)-3-(4-(3-phenylpyrrolidin-1-yl)-2′-(1H-tetrazol-5-yl)-[1,1′-biphenyl]-3-yl)urea]
50	280	O=C(Nc1ccc(C(F)(F)F)cc1F)Nc1cc(-c2ccccc2-c2nnn[nH]2)ccc1N(CCC(F)(F)F)Cc1ccccn1 [Example 303, 1-(2-fluoro-4-(trifluoromethyl)phenyl)-3-(4-((pyridin-2-ylmethyl)(3,3,3-trifluoropropyl)amino)-2′-(1H-tetrazol-5-yl)-[1,1′-biphenyl]-3-yl)urea]
60	220	O=C(Nc1ccc(OC(F)(F)F)cc1)Nc1cc(-c2ccccc2-c2nnn[nH]2)ccc1N(CCCC(F)(F)F)Cc1ccc(Cl)cc1 [Example 322, 1-(4-((4-chlorobenzyl)(4,4,4-trifluorobutyl)amino)-2′-(1H-tetrazol-5-yl)-[1,1′-biphenyl]-3-yl)-3-(4-(trifluoromethoxy)phenyl)urea]
20	10	Cc1ccc(NC(=O)Nc2cc(-c3cc(F)ccc3C(=O)O)ccc2N(CC(C)C)CC(C)C)cc1 [Example 126, 4′-(diisobutylamino)-5-fluoro-3′-(3-p-tolylureido)biphenyl-2-carboxylic acid]
3.79	10	Cc1ccc(NC(=O)Nc2cc(-c3ccccc3C(=O)O)cc(Cl)c2N(CC(C)C)CC(C)C)cc1 [Example 40, 3′-Chloro-4′-(diisobutylamino)-5′-(3-p-tolylureido)biphenyl-2-carboxylic acid]
30	40	O=C(Nc1ccc(F)cc1F)Nc1cc(-c2ccccc2-c2nnn[nH]2)ccc1N(CCC(F)(F)F)Cc1ccc(F)cc1C(F)(F)F [Example 340, 1-(2,4-difluorophenyl)-3-(4-((4-fluoro-2-(trifluoromethyl)benzyl) (3,3,3-trifluoropropyl)amino)-2′-(1H-tetrazol-5-yl)-[1,1′-biphenyl]-3-yl)urea]
90	1830	CC(C)CN(Cc1ccccc1)c1ccc(-c2ccccc2-c2nnn[nH]2)cc1NC(=O)Nc1ccc(C2CC2)cc1 [Example 291, 1-(4-(Benzyl(isobutyl)amino)-2′-(1H-tetrazol-5-yl)-[1,1′-biphenyl]-3-yl)-3-(4-cyclopropylphenyl)urea]
20	10	Cc1ccc(NC(=O)Nc2cc(-c3ccccc3-c3nnn[nH]3)ccc2N2CCC(c3ccccc3)C2)cc1 (racemic) [Example 367, (±)-1-(4-(3-Phenylpyrrolidin-1-yl)-2′-(1H-tetrazol-5-yl)-[1,1′-biphenyl]-3-yl)-3-(p-tolyl)urea]
1	2.37	Cc1ccc(NC(=O)Nc2cc(-c3ccccc3-c3nnn[nH]3)cc(Cl)c2N(CC(C)C)CC(C)C)cc1 [Example 39, 1-(5-Chloro-4-(diisobutylamino)-2′-(1H-tetrazol-5-yl)biphenyl-3-yl)-3-p-tolylurea]
2.85	7.87	O=C(Nc1ccc(C(F)(F)F)cc1F)Nc1cc(-c2ccccc2-c2nnn[nH]2)ccc1N(CCC(F)(F)F)Cc1ccc(OC(F)(F)F)cc1 [Example 301, 1-(2′-(1H-tetrazol-5-yl)-4-((4-(trifluoromethoxy)benzyl)(3,3,3-trifluoropropyl)amino)-[1,1′-biphenyl]-3-yl)-3-(2-fluoro-4-(trifluoromethyl)phenyl)urea]
50	70	Cc1ccc(NC(=O)Nc2cc(-c3cc(F)ccc3C(=O)O)ccc2N(CC(C)C)CC2CC(F)(F)C2)cc1 [Example 380]
20	40	Cc1ccc(NC(=O)Nc2cc(-c3ccccc3-c3nnn[nH]3)ccc2N(CCC(F)(F)F)Cc2ccccc2Cl)cc1 [Example 19, 1-(4-((2-Chlorobenzyl)(3,3,3-trifluoropropyl)amino)-2′-(1H-tetrazol-5-yl)-[1,1′-biphenyl]-3-yl)-3-(p-tolyl)urea]
70	60	C=C(C)CN(CC(F)(F)F)c1ccc(-c2cc(F)ccc2C(=O)O)cc1NC(=O)Nc1ccc(C)cc1 [Example 473]
1640	1890	CC(C)CN(CC1CC(F)(F)C1)c1ccc(-c2ccccc2-c2nnn[nH]2)cc1NC(=O)Nc1cc(C(C)C)no1 [Example 384]
130	80	Cc1ccc(NC(=O)Nc2cc(-c3ccc(Cl)cc3C(=O)O)ccc2N(CC(C)C)CC(C)C)cc1 [Example 127, 4-chloro-4′-(diisobutylamino)-3′-(3-p-tolylureido) biphenyl-2-carboxylic acid]
110	220	Cc1ccc(NC(=O)Nc2cc(-c3ccccc3-c3nnn[nH]3)ccc2N2CCCc3ccccc32)cc1 [Example 361, 1-(4-(3,4-Dihydroquinolin-1(2H)-yl)-2′-(1H-tetrazol-5-yl)-[1,1′-biphenyl]-3-yl)-3-(p-tolyl)urea]
